According to US20030099960A1, “Compositions and methods for optimizing UGT2B7 substrate dosings and for predicting UGT2B7 substrate toxicity” (The University of Chicago, priority 2001, published 2003):

Legend:
human UGT2B15 = target: T1, human UGT2B15 (Homo sapiens, UniProt P54855); assay: Epirubicin glucuronidation in microsomes expressing UGT2B15; conditions: Nd = not detectable
T1 sequence (P54855 24-530): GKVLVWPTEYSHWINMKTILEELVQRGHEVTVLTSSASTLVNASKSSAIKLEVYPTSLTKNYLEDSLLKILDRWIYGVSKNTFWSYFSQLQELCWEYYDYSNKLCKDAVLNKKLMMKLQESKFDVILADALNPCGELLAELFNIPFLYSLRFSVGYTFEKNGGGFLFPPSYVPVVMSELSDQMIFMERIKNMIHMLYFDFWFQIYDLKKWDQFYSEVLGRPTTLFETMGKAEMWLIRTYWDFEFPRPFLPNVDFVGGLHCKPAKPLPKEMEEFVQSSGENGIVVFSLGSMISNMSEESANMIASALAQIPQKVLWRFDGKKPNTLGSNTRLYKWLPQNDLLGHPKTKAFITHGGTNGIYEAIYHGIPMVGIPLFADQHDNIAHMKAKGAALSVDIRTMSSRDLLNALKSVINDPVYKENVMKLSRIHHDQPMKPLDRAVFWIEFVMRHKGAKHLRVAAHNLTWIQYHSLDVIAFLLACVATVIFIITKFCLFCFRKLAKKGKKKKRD
Description: (§1) Microsomes from human lymphoblasts and insect cells (BTI-TN-5B1-4) both transfected with a vector containing human UGT1A1, UGT1A3, UGT1A4, UGT1A6, UGT1A9 and UGT2B15 complementary DNA (cDNA) and their negative control (microsomes from cells infected with wild-type vector) were obtained from Gentest Corp. (Woburn, Mass.). Microsomes from insect cells (SF-9) infected with a baculovirus containing human cDNA for UGT2B7 and their negative control were purchased from PanVera (Madison, Wis.).
(§2) For this purpose, dried samples were reconstituted with 0.2 ml of sodium phosphate buffer (0.1 M, pH 6.8) containing 1000 U of β-glucuronidase (type VII, from E. coli) and incubated overnight at 37° C. Reference samples containing no enzyme were treated identically.
(§3) The mobile phase consisted of 30% acetonitrile and 70% 50 mM sodium dihydrogen phosphate (pH adjusted to 4 with 8.5% ortho-phosphoric acid).

human UGT1A4 = target: T2, human UGT1A4 (Homo sapiens, UniProt P22310); assay: Epirubicin glucuronidation in microsomes expressing UGT1A4; conditions: Nd = not detectable
T2 sequence (P22310 29-534): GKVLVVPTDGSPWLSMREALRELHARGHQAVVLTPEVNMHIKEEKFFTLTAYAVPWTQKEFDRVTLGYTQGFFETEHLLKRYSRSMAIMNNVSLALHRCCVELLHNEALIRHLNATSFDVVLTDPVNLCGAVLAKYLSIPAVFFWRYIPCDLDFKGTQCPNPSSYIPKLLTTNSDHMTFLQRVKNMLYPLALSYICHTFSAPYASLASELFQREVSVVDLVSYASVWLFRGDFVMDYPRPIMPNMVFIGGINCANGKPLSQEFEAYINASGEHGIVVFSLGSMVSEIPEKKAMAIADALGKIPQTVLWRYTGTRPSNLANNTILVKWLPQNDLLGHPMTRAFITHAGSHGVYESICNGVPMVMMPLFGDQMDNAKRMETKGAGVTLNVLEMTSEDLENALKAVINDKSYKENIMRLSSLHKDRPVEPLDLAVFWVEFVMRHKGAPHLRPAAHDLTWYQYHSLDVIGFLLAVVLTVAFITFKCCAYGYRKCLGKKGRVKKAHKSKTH
Description: as §1, §2, §3

[1] = cited from earlier work
human UGT1A6 = target: T3, human UGT1A6 (Homo sapiens, UniProt P19224); assay: Epirubicin glucuronidation in microsomes expressing UGT1A6; conditions: Nd = not detectable
T3 sequence (P19224 27-532): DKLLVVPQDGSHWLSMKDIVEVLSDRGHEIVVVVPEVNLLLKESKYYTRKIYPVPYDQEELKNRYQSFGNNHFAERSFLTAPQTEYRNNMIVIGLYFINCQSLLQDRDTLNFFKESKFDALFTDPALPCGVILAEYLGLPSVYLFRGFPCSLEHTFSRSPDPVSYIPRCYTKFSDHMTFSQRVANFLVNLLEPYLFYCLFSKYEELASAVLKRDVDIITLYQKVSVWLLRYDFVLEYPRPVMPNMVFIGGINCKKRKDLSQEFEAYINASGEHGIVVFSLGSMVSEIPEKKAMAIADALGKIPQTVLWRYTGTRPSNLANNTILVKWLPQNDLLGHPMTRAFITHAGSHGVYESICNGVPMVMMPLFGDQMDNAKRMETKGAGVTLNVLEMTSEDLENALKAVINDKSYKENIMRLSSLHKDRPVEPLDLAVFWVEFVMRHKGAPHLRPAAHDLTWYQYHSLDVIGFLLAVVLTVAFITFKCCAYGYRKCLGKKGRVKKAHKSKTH
Description: as §1, §2, §3

human UGT1A1 = target: T4, human UGT1A1 (Homo sapiens, UniProt P22309); assay: Epirubicin glucuronidation in microsomes expressing UGT1A1; conditions: Nd = not detectable
T4 sequence (P22309 26-533): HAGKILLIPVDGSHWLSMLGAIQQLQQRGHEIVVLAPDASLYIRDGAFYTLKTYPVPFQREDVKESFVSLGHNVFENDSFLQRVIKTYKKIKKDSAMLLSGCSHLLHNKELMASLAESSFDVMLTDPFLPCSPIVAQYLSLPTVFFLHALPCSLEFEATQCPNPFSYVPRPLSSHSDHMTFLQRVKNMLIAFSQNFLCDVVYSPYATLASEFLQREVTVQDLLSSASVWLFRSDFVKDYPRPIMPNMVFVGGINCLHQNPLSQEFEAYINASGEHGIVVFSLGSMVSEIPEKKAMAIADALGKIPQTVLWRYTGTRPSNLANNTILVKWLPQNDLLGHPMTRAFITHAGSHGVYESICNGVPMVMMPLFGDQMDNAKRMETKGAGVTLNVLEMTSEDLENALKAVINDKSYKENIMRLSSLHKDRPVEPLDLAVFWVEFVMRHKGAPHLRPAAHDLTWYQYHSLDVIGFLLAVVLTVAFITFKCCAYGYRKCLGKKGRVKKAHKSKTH
Description: as §1, §2, §3

human UGT1A9 = target: T5, human UGT1A9 (Homo sapiens, UniProt O60656); assay: Epirubicin glucuronidation in microsomes expressing UGT1A9; conditions: Nd = not detectable
T5 sequence (O60656 26-530): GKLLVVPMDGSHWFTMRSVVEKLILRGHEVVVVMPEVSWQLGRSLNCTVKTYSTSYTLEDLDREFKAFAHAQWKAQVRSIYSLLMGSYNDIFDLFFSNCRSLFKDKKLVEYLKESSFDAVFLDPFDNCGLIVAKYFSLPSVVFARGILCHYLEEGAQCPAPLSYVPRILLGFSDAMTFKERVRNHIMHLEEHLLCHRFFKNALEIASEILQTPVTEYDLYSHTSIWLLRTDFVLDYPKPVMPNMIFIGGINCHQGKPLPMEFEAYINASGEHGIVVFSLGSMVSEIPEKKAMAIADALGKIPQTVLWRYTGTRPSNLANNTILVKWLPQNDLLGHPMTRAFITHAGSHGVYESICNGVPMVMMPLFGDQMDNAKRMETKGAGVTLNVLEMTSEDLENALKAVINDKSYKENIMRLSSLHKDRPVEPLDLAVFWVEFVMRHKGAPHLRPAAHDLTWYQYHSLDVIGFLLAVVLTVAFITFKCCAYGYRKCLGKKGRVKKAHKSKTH
Description: as §1, §2, §3

human UGT1A3 = target: T6, human UGT1A3 (Homo sapiens, UniProt P35503); assay: Epirubicin glucuronidation in microsomes expressing UGT1A3; conditions: Nd = not detectable
T6 sequence (P35503 29-534): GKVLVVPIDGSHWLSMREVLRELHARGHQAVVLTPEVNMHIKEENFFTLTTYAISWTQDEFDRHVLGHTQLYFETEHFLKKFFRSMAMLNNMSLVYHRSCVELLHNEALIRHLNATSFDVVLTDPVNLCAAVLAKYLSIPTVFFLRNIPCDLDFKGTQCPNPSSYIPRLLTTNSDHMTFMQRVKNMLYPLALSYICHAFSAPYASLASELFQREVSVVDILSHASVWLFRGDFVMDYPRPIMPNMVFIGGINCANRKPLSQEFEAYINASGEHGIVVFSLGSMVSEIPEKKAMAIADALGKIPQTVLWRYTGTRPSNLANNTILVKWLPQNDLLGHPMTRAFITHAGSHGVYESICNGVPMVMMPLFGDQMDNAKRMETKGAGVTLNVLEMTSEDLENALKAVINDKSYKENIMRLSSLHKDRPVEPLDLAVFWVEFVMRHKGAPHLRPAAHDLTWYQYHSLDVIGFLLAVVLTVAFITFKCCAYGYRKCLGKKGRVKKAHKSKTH
Description: as §1, §2, §3

## COc1cccc2c1C(=O)c1c(O)c3c(c(O)c1C2=O)C[C@@](O)(C(=O)CO)C[C@@H]3O[C@H]1C[C@H](N)[C@@H](O)[C@H](C)O1 [Epirubicin, 4′-epi-doxorubicin]
Human UGT2B15
  Formation rate of epirubicin glucuronide: No epirubicin glucuronidating activity
Human UGT1A4
  Formation rate of epirubicin glucuronide: No epirubicin glucuronidating activity
[1]; 3-compartment model
  Median half-life, first phase: about 3.2 minutes
  Median half-life, second phase: ~1.2 h
  Median half-life, third phase: ~32 h
[1]; elimination primarily biliary
  Fraction excreted in the urine: less than 15%
[1]; human, in vivo
  Total plasma clearance: about 46 L/h/m^2
Human UGT1A6
  Formation rate of epirubicin glucuronide: No epirubicin glucuronidating activity
Human UGT1A1
  Formation rate of epirubicin glucuronide: No epirubicin glucuronidating activity
Human UGT1A9
  Formation rate of epirubicin glucuronide: No epirubicin glucuronidating activity
Human UGT1A3
  Formation rate of epirubicin glucuronide: No epirubicin glucuronidating activity
